Experimental data from ChEMBL document CHEMBL3632622, “Synthesis and biological evaluation of novel N-phenyl ureidobenzenesulfonate derivatives as potential anticancer agents. Part 2. Modulation of the ring B” (Eur J Med Chem, 2015).

Legend:
[1] = Antiproliferative activity against human HT1080 cells assessed as growth inhibition incubated for 48 hrs by sulforhodamine B assay; type: functional, cell-based, HT-1080; conditions: Homo sapiens, HT-1080, 48 h; read-out: IC50
M21 [2] = assay: Antiproliferative activity against human M21 cells assessed as growth inhibition incubated for 48 hrs by sulforhodamine B assay; type: functional, cell-based; conditions: M21, 48 h
HT-29 = assay: Antiproliferative activity against human HT-29 cells assessed as growth inhibition incubated for 48 hrs by sulforhodamine B assay; type: functional, cell-based; conditions: HT-29, 48 h
MCF7 = assay: Antiproliferative activity against human MCF7 cells assessed as growth inhibition incubated for 48 hrs by sulforhodamine B assay; type: functional, cell-based; conditions: MCF7, 48 h
M21 [3] = assay: Cell cycle arrest in human M21 cells assessed as accumulation at subG1 phase at 11 uM after 24 hrs by DAPI staining-based flow cytometry (reference value: 1.5%); type: functional
M21 [4] = assay: Cell cycle arrest in human M21 cells assessed as accumulation at G0/G1 phase at 11 uM after 24 hrs by DAPI staining-based flow cytometry (reference value: 65.1%); type: functional
M21 [5] = assay: Cell cycle arrest in human M21 cells assessed as accumulation at S phase at 11 uM after 24 hrs by DAPI staining-based flow cytometry (reference value: 17.4%); type: functional
M21 [6] = assay: Cell cycle arrest in human M21 cells assessed as accumulation at G2/M phase at 11 uM after 24 hrs by DAPI staining-based flow cytometry (reference value: 16%); type: functional
M21 [7] = assay: Cell cycle arrest in human M21 cells assessed as accumulation at subG1 phase at 40 uM after 24 hrs by DAPI staining-based flow cytometry (reference value: 1.5%); type: functional
M21 [8] = assay: Cell cycle arrest in human M21 cells assessed as accumulation at G0/G1 phase at 40 uM after 24 hrs by DAPI staining-based flow cytometry (reference value: 65.1%); type: functional
M21 [9] = assay: Cell cycle arrest in human M21 cells assessed as accumulation at S phase at 40 uM after 24 hrs by DAPI staining-based flow cytometry (reference value: 17.4%); type: functional
M21 [10] = assay: Cell cycle arrest in human M21 cells assessed as accumulation at G2/M phase at 40 uM after 24 hrs by DAPI staining-based flow cytometry (reference value: 16%); type: functional
M21 [11] = assay: Cell cycle arrest in human M21 cells assessed as accumulation at subG1 phase at 32 uM after 24 hrs by DAPI staining-based flow cytometry (reference value: 1.5%); type: functional
M21 [12] = assay: Cell cycle arrest in human M21 cells assessed as accumulation at G0/G1 phase at 32 uM after 24 hrs by DAPI staining-based flow cytometry (reference value: 65.1%); type: functional
M21 [13] = assay: Cell cycle arrest in human M21 cells assessed as accumulation at S phase at 32 uM after 24 hrs by DAPI staining-based flow cytometry (reference value: 17.4%); type: functional
M21 [14] = assay: Cell cycle arrest in human M21 cells assessed as accumulation at G2/M phase at 32 uM after 24 hrs by DAPI staining-based flow cytometry (reference value: 16%); type: functional
M21 [15] = assay: Cell cycle arrest in human M21 cells assessed as accumulation at subG1 phase at 22 uM after 24 hrs by DAPI staining-based flow cytometry (reference value: 1.5%); type: functional
M21 [16] = assay: Cell cycle arrest in human M21 cells assessed as accumulation at G0/G1 phase at 22 uM after 24 hrs by DAPI staining-based flow cytometry (reference value: 65.1%); type: functional
M21 [17] = assay: Cell cycle arrest in human M21 cells assessed as accumulation at S phase at 22 uM after 24 hrs by DAPI staining-based flow cytometry (reference value: 17.4%); type: functional
M21 [18] = assay: Cell cycle arrest in human M21 cells assessed as accumulation at G2/M phase at 22 uM after 24 hrs by DAPI staining-based flow cytometry (reference value: 16%); type: functional
M21 [19] = assay: Cell cycle arrest in human M21 cells assessed as accumulation at subG1 phase at 49 uM after 24 hrs by DAPI staining-based flow cytometry (reference value: 1.5%); type: functional
M21 [20] = assay: Cell cycle arrest in human M21 cells assessed as accumulation at G0/G1 phase at 49 uM after 24 hrs by DAPI staining-based flow cytometry (reference value: 65.1%); type: functional
M21 [21] = assay: Cell cycle arrest in human M21 cells assessed as accumulation at S phase at 49 uM after 24 hrs by DAPI staining-based flow cytometry (reference value: 17.4%); type: functional
M21 [22] = assay: Cell cycle arrest in human M21 cells assessed as accumulation at G2/M phase at 49 uM after 24 hrs by DAPI staining-based flow cytometry (reference value: 16%); type: functional
M21 [23] = assay: Cell cycle arrest in human M21 cells assessed as accumulation at subG1 phase at 43 uM after 24 hrs by DAPI staining-based flow cytometry (reference value: 1.5%); type: functional
M21 [24] = assay: Cell cycle arrest in human M21 cells assessed as accumulation at G0/G1 phase at 43 uM after 24 hrs by DAPI staining-based flow cytometry (reference value: 65.1%); type: functional
M21 [25] = assay: Cell cycle arrest in human M21 cells assessed as accumulation at S phase at 43 uM after 24 hrs by DAPI staining-based flow cytometry (reference value: 17.4%); type: functional
M21 [26] = assay: Cell cycle arrest in human M21 cells assessed as accumulation at G2/M phase at 43 uM after 24 hrs by DAPI staining-based flow cytometry (reference value: 16%); type: functional
M21 [27] = assay: Cell cycle arrest in human M21 cells assessed as accumulation at subG1 phase at 3.8 uM after 24 hrs by DAPI staining-based flow cytometry (reference value: 1.5%); type: functional
M21 [28] = assay: Cell cycle arrest in human M21 cells assessed as accumulation at G0/G1 phase at 3.8 uM after 24 hrs by DAPI staining-based flow cytometry (reference value: 65.1%); type: functional
M21 [29] = assay: Cell cycle arrest in human M21 cells assessed as accumulation at S phase at 3.8 uM after 24 hrs by DAPI staining-based flow cytometry (reference value: 17.4%); type: functional
M21 [30] = assay: Cell cycle arrest in human M21 cells assessed as accumulation at G2/M phase at 3.8 uM after 24 hrs by DAPI staining-based flow cytometry (reference value: 16%); type: functional
M21 [31] = assay: Cell cycle arrest in human M21 cells assessed as accumulation at subG1 phase at 25 uM after 24 hrs by DAPI staining-based flow cytometry (reference value: 1.5%); type: functional
M21 [32] = assay: Cell cycle arrest in human M21 cells assessed as accumulation at G0/G1 phase at 25 uM after 24 hrs by DAPI staining-based flow cytometry (reference value: 65.1%); type: functional
M21 [33] = assay: Cell cycle arrest in human M21 cells assessed as accumulation at S phase at 25 uM after 24 hrs by DAPI staining-based flow cytometry (reference value: 17.4%); type: functional
M21 [34] = assay: Cell cycle arrest in human M21 cells assessed as accumulation at G2/M phase at 25 uM after 24 hrs by DAPI staining-based flow cytometry (reference value: 16%); type: functional
M21 [35] = assay: Cell cycle arrest in human M21 cells assessed as accumulation at subG1 phase at 42 uM after 24 hrs by DAPI staining-based flow cytometry (reference value: 1.5%); type: functional
M21 [36] = assay: Cell cycle arrest in human M21 cells assessed as accumulation at G0/G1 phase at 42 uM after 24 hrs by DAPI staining-based flow cytometry (reference value: 65.1%); type: functional
M21 [37] = assay: Cell cycle arrest in human M21 cells assessed as accumulation at S phase at 42 uM after 24 hrs by DAPI staining-based flow cytometry (reference value: 17.4%); type: functional
M21 [38] = assay: Cell cycle arrest in human M21 cells assessed as accumulation at G2/M phase at 42 uM after 24 hrs by DAPI staining-based flow cytometry (reference value: 16%); type: functional
M21 [39] = assay: Cell cycle arrest in human M21 cells assessed as accumulation at subG1 phase at 1.2 uM after 24 hrs by DAPI staining-based flow cytometry (reference value: 1.5%); type: functional
M21 [40] = assay: Cell cycle arrest in human M21 cells assessed as accumulation at G0/G1 phase at 1.2 uM after 24 hrs by DAPI staining-based flow cytometry (reference value: 65.1%); type: functional
M21 [41] = assay: Cell cycle arrest in human M21 cells assessed as accumulation at S phase at 1.2 uM after 24 hrs by DAPI staining-based flow cytometry (reference value: 17.4%); type: functional
M21 [42] = assay: Cell cycle arrest in human M21 cells assessed as accumulation at G2/M phase at 1.2 uM after 24 hrs by DAPI staining-based flow cytometry (reference value: 16%); type: functional
M21 [43] = assay: Cell cycle arrest in human M21 cells assessed as accumulation at subG1 phase at 1.7 uM after 24 hrs by DAPI staining-based flow cytometry (reference value: 1.5%); type: functional
M21 [44] = assay: Cell cycle arrest in human M21 cells assessed as accumulation at G0/G1 phase at 1.7 uM after 24 hrs by DAPI staining-based flow cytometry (reference value: 65.1%); type: functional
M21 [45] = assay: Cell cycle arrest in human M21 cells assessed as accumulation at S phase at 1.7 uM after 24 hrs by DAPI staining-based flow cytometry (reference value: 17.4%); type: functional
M21 [46] = assay: Cell cycle arrest in human M21 cells assessed as accumulation at G2/M phase at 1.7 uM after 24 hrs by DAPI staining-based flow cytometry (reference value: 16%); type: functional
M21 [47] = assay: Cell cycle arrest in human M21 cells assessed as accumulation at subG1 phase at 7.5 uM after 24 hrs by DAPI staining-based flow cytometry (reference value: 1.5%); type: functional
M21 [48] = assay: Cell cycle arrest in human M21 cells assessed as accumulation at G0/G1 phase at 7.5 uM after 24 hrs by DAPI staining-based flow cytometry (reference value: 65.1%); type: functional
M21 [49] = assay: Cell cycle arrest in human M21 cells assessed as accumulation at S phase at 7.5 uM after 24 hrs by DAPI staining-based flow cytometry (reference value: 17.4%); type: functional
M21 [50] = assay: Cell cycle arrest in human M21 cells assessed as accumulation at G2/M phase at 7.5 uM after 24 hrs by DAPI staining-based flow cytometry (reference value: 16%); type: functional

| Compound | IC50 (HT-29) [µM] | IC50 (MCF7) [µM] | IC50 [1] [µM] | IC50 (M21 [2]) [µM] | also measured |
| --- | --- | --- | --- | --- | --- |
| O=C(NCCCl)Nc1ccc(S(=O)(=O)Oc2cc(F)cc(F)c2)cc1 | 4.8 | 5.7 | 5.7 | 5 | Activity (M21 [11]): 6.7%; Activity (M21 [12]): 7.4%; Activity (M21 [13]): 10.2%; Activity (M21 [14]): 75.7% |
| O=C(NCCCl)Nc1ccc(S(=O)(=O)Oc2cc(Cl)cc(Cl)c2)cc1 | 0.55 | 1 | 1.1 | 0.51 | Activity (M21 [27]): 7.2%; Activity (M21 [28]): 2.5%; Activity (M21 [29]): 6%; Activity (M21 [30]): 84.3% |
| O=C(NCCCl)Nc1ccc(S(=O)(=O)Oc2cc(Br)cc(Br)c2)cc1 | 0.3 | 0.4 | 0.4 | 0.24 | Activity (M21 [39]): 7.1%; Activity (M21 [40]): 2.6%; Activity (M21 [41]): 6.9%; Activity (M21 [42]): 83.4% |
| COc1cc(OS(=O)(=O)c2ccc(NC(=O)NCCCl)cc2)cc(OC)c1OC | 0.5 | 0.66 | 0.64 | 0.47 | Activity (M21 [43]): 9.3%; Activity (M21 [44]): 15.6%; Activity (M21 [45]): 9%; Activity (M21 [46]): 66.1% |
| COc1cc(OC)cc(OS(=O)(=O)c2ccc(NC(=O)NCCCl)cc2)c1 | 1.1 | 2 | 1.5 | 1.1 | Activity (M21 [47]): 11.4%; Activity (M21 [48]): 9.3%; Activity (M21 [49]): 5.2%; Activity (M21 [50]): 74.1% |

The next lines start with results.

| IC50 (HT-29) [µM] | IC50 (MCF7) [µM] | Compound | IC50 [1] [µM] | IC50 (M21 [2]) [µM] | also measured |
| --- | --- | --- | --- | --- | --- |
| 3.2 | 3.3 | CCOc1cccc(OS(=O)(=O)c2ccc(NC(=O)NCCCl)cc2)c1 | 3.3 | 2.4 | Activity (M21 [3]): 8.4%; Activity (M21 [4]): 22.2%; Activity (M21 [5]): 13.5%; Activity (M21 [6]): 55.9% |
| 8.3 | 9.4 | O=C(NCCCl)Nc1ccc(S(=O)(=O)Oc2ccc(Br)cc2)cc1 | 9.6 | 8.1 | Activity (M21 [7]): 7.5%; Activity (M21 [8]): 12%; Activity (M21 [9]): 4.4%; Activity (M21 [10]): 76.1% |
| 3.4 | 3.9 | CCCc1cccc(OS(=O)(=O)c2ccc(NC(=O)NCCCl)cc2)c1 | 2.6 | 3.3 | Activity (M21 [15]): 6%; Activity (M21 [16]): 9.9%; Activity (M21 [17]): 5.8%; Activity (M21 [18]): 78.3% |
| 7.8 | 9.5 | CCOc1ccc(OS(=O)(=O)c2ccc(NC(=O)NCCCl)cc2)cc1 | 8.3 | 8.3 | Activity (M21 [19]): 3.5%; Activity (M21 [20]): 13.4%; Activity (M21 [21]): 8.2%; Activity (M21 [22]): 74.9% |
| 6.5 | 7.1 | CCCCOc1ccc(OS(=O)(=O)c2ccc(NC(=O)NCCCl)cc2)cc1 | 3.4 | 7.7 | Activity (M21 [23]): 8.3%; Activity (M21 [24]): 39.7%; Activity (M21 [25]): 9.1%; Activity (M21 [26]): 42.9% |
| 3.8 | 4.2 | COc1cccc(OS(=O)(=O)c2ccc(NC(=O)NCCCl)cc2)c1 | 3.1 | 3.6 | Activity (M21 [31]): 3.5%; Activity (M21 [32]): 2.5%; Activity (M21 [33]): 6.3%; Activity (M21 [34]): 87.7% |
| 7 | 8.9 | O=C(NCCCl)Nc1ccc(S(=O)(=O)Oc2ccc(F)c(F)c2)cc1 | 8.1 | 7.3 | Activity (M21 [35]): 7.6%; Activity (M21 [36]): 11.6%; Activity (M21 [37]): 18.3%; Activity (M21 [38]): 62.5% |
